Reference: ChEMBL document CHEMBL3351570, “Design and synthesis of 2-phenylnaphthalenoids as inhibitors of DNA topoisomeraseIIα and antitumor agents” (Eur J Med Chem, 2014)
Active and inactive are the calls of the source. No cut-off for these calls is given here.

Assays:
[1] = test system: MDA-MB-231; assay: Cytotoxicity against human MDA-MB-231 cells after 72 hrs by sulforhodamine B assay; format: functional, cell-based; settings: MDA-MB-231, 72 h
[2] = test system: A549; assay: Cytotoxicity against human A549 cells after 72 hrs by sulforhodamine B assay; format: functional, cell-based; settings: A549, 72 h
[3] = test system: HeLa; assay: Cytotoxicity against human HeLa cells after 72 hrs by sulforhodamine B assay; format: functional, cell-based
[4] = molecular target: DNA topoisomerase 2-alpha (Homo sapiens) (UniProt P11388); assay: Inhibition of human recombinant topoisomerase 2alpha assessed as reduction in pBR322 DNA relaxation at 100 uM incubated for 30 mins by DNA gel electrophoresis
DNA topoisomerase 2-alpha (Homo sapiens), sequence (P11388 whole entry): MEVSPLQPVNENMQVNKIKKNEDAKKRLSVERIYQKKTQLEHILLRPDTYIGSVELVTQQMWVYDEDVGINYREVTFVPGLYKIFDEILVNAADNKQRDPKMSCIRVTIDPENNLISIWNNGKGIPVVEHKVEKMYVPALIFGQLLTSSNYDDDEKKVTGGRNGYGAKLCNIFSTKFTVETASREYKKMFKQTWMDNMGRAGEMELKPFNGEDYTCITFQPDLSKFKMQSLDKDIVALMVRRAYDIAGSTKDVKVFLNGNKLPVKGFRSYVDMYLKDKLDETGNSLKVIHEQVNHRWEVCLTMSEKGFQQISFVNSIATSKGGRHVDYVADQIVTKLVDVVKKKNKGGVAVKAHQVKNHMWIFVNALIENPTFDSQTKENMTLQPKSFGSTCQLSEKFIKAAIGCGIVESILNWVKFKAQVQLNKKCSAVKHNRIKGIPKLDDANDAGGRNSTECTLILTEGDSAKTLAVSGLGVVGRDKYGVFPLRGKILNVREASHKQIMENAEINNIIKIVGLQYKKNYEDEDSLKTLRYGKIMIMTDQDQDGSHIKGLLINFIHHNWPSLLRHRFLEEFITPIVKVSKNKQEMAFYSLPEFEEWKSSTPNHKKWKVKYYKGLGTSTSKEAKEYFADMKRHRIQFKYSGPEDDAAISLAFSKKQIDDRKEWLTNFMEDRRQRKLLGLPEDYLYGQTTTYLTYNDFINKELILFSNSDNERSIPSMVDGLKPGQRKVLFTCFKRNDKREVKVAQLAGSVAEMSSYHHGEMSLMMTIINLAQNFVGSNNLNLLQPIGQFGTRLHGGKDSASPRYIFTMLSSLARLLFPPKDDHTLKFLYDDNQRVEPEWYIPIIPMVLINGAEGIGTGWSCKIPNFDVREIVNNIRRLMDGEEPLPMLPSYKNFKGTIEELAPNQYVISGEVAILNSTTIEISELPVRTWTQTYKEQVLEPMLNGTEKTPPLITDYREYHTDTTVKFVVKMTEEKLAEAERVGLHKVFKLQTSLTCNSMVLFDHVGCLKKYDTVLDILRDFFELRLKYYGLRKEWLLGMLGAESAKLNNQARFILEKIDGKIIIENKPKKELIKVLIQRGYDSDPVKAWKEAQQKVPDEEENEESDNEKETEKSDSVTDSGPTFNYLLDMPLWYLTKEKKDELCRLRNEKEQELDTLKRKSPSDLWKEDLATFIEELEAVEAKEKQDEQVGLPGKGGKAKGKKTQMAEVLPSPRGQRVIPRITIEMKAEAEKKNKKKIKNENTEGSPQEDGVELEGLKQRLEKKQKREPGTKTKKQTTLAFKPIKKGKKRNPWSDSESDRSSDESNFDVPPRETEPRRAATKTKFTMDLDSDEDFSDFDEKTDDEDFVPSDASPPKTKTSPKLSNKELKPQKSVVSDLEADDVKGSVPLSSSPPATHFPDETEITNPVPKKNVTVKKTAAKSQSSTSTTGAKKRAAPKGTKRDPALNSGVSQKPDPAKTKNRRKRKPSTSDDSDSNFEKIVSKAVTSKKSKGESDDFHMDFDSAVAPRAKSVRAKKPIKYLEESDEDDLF

[5] = molecular target: DNA topoisomerase 2-alpha (Homo sapiens) (UniProt P11388); assay: Inhibition of human recombinant topoisomerase 2alpha assessed as reduction in kDNA decatenation at 100 uM incubated for 30 mins by DNA gel electrophoresis
[6] = molecular target: DNA topoisomerase 2-alpha (Homo sapiens) (UniProt P11388); assay: Inhibition of human recombinant topoisomerase 2alpha assessed as reduction in pBR322 DNA relaxation at 200 uM incubated for 30 mins by DNA gel electrophoresis
[7] = molecular target: DNA topoisomerase 2-alpha (Homo sapiens) (UniProt P11388); assay: Inhibition of human recombinant topoisomerase 2alpha assessed as reduction in pBR322 DNA relaxation incubated for 30 mins by DNA gel electrophoresis
[8] = molecular target: DNA topoisomerase 2-alpha (Homo sapiens) (UniProt P11388); assay: Inhibition of human recombinant topoisomerase 2alpha assessed as increase in linear DNA using circular supercoiled plasmid DNA substrate at 100 to 200 uM incubated for 30 mins by ethidium bromide staining based DNA gel electrophoresis
[9] = test system: Nucleic Acid; assay: Induction of DNA intercalation in Escherichia coli pBR322 DNA at 50 to 200 uM by DNA gel electrophoresis; format: nucleic-acid assay
[10] = test system: MDA-MB-231; assay: Induction of cell cycle arrest in human MDA-MB-231 cells assessed as accumulation at G2/M phase at 5 uM after 24 hrs by propidium iodide staining based flow cytometry (reference value: 25.19%); format: functional
[11] = test system: MDA-MB-231; assay: Induction of cell cycle arrest in human MDA-MB-231 cells assessed as reduction in accumulation at G0/G1 phase at 5 uM after 24 hrs by propidium iodide staining based flow cytometry; format: functional
[12] = test system: MDA-MB-231; assay: Induction of cell cycle arrest in human MDA-MB-231 cells assessed as reduction in accumulation at S phase at 5 uM after 24 hrs by propidium iodide staining based flow cytometry; format: functional
[13] = test system: MDA-MB-231; assay: Increase in histone H3 Ser10 phosphorylation in human MDA-MB-231 cells at 1 to 5 uM after 24 hrs by Western blot method; format: functional, cell-based
[14] = test system: MDA-MB-231; assay: Increase in cyclin B protein expression in human MDA-MB-231 cells at 1 to 5 uM after 24 hrs by Western blot method; format: functional, cell-based
[15] = test system: MDA-MB-231; assay: Effect on cdc2 protein expression in human MDA-MB-231 cells at 1 to 5 uM after 24 hrs by Western blot method; format: functional, cell-based
[16] = test system: MDA-MB-231; assay: Induction of DNA damage in human MDA-MB-231 cells assessed as increase in gammaH2AX protein expression at 1 to 5 uM after 24 hrs by Western blot method; format: functional, cell-based
[17] = test system: MDA-MB-231; assay: Induction of DNA damage in human MDA-MB-231 cells assessed as increase in ATR S428 phosphorylation at 1 to 5 uM after 24 hrs by Western blot method; format: functional, cell-based
[18] = test system: MDA-MB-231; assay: Induction of DNA damage in human MDA-MB-231 cells assessed as ATR expression level at 1 to 5 uM after 24 hrs by Western blot method; format: functional, cell-based
[19] = test system: MDA-MB-231; assay: Induction of DNA damage in human MDA-MB-231 cells assessed as ATM S1981 phosphorylation at 1 to 5 uM after 24 hrs by Western blot method; format: functional, cell-based
[20] = test system: MDA-MB-231; assay: Induction of DNA damage in human MDA-MB-231 cells assessed as ATM expression level at 1 to 5 uM after 24 hrs by Western blot method; format: functional, cell-based
[21] = test system: MDA-MB-231; assay: Induction of DNA damage in human MDA-MB-231 cells assessed as increase in p53 S46 phosphorylation at 1 to 5 uM after 24 hrs by Western blot method; format: functional, cell-based
[22] = test system: MDA-MB-231; assay: Induction of DNA damage in human MDA-MB-231 cells assessed as increase in p53 expression level at 1 to 5 uM after 24 hrs by Western blot method; format: functional, cell-based
[23] = test system: MDA-MB-231; assay: Antitumor activity against human MDA-MB-231 cells xenografted in BALB/c-nu mouse assessed as reduction in tumor weight at 20 mg/kg, iv dosed every other day for 15 days; format: functional; settings: MDA-MB-231, 360 h
[24] = test system: Mus musculus; assay: Toxicity in nude BALB/c mouse xenografted with human MDA-MB-231 cells assessed as reduction in body weight at 20 mg/kg, iv dosed every other day for 15 days (reference value: 24.2 g); format: organism-based; set-up: dose 20 mg/kg, route intravenous; settings: in vivo, 360 h

inhibition [4]: Active
inhibition [5]: Active
inhibition [6]: Active
inhibition [7]: Dose-dependent effect
inhibition [8]: Active
Activity [9]: inactive
SMILES: OCc1cc(-c2ccc3cc(O)ccc3c2)ccc1O
IC50 [1]: 1000 nM
IC50 [2]: 2800 nM
IC50 [3]: 1300 nM
Activity [10]: 77.79%
Activity [11]: Active
Activity [12]: Active
Activity [13]: Active
Activity [14]: Active
Activity [15]: inactive
Activity [16]: Dose-dependent effect
Activity [17]: Active
Activity [18]: inactive
Activity [19]: inactive
Activity [20]: inactive
Activity [21]: Active
Activity [22]: Active
inhibition in vivo at 20 mg/kg [23]: 43.1%
Activity [24]: Non-toxic
